Test results taken from patent US12529022B2, “Human organ-on-chip models for predictive screening” (The Trustees of Columbia University in the City of New York, priority 2018, dated 2026).
Structures can show the parent of a compound that is named as a salt.

How the values were obtained:
Liver tissues = experiment: Doxorubicin study: liver functionality; format: cell-based, human; conditions: 30 μM, 72 hours, only in the integrated experimental groups
Method: (§1) Common tissue responses were measured for each tissue individually, 72 hours after their assembly into the integrated platform and exposure to 30 μM concentration of doxorubicin introduced into the circulatory perfusion. FIG. 61 illustrates the Doxorubicin (Dox) drug study design including four conditions tests (integrated control, integrated Dox, isolated control, isolated Dox).

Bone tissues = experiment: Doxorubicin study: bone remodeling and histology; conditions: 30 μM, 72 hours
Method: as §1

all tissue types = experiment: Doxorubicin study in integrated multi-tissue platform: common toxicity readouts; format: cell-based, human; conditions: 72 hours after 30 μM dose
skin tissues = experiment: Doxorubicin study: skin barrier transport and TEER; format: cell-based, human; conditions: 30 μM, 72 hours, isolated and integrated comparable
Method: as §1

cardiac compartment = experiment: Doxorubicin study: cardiac compartment function; format: cell-based, human; conditions: 30 μM, 72 hours
human cardiac OOC [1] = tested on: human cardiac OOC
Source text: (§2) The pillars subjected the hydrogel to mechanical loading designed to mimic that in the native heart. The hydrogel compaction caused passive tension in the tissues as they're stretched and aligned between the pillars. Synchronous contractions forced the tissues to work against the pillars. […] Cardiac model development: Cardiac tissues were formed by cell encapsulation in fibrin hydrogel. Human iPS cell-derived cardiomyocytes at day 16 of differentiation were combined with normal human dermal fibroblasts (NHDF; Lonza) at a ratio of 75% hiPSC-CMs and 25% NHDF, for a total of 1 million cells per tissue. The hydrogel was formed by mixing 33 mg/mL of fibrinogen from human plasma (Sigma-Aldrich) with 25 U/mL of thrombin from human plasma (Sigma-Aldrich), on a 84:16 ratio. The hydrogel mixed with the cells was dispensed into each well of the tissues formation reservoir and allowed to polymerize at 37° C. for 15 min before adding RPMI Medium 1640 supplemented with B-27™ containing 0.2 mg/ml aprotinin (Sigma-Aldrich). Subsequently, medium was changed every other day supplemented with 0.2 mg/ml aprotinin for the first 7 days. After 7 days, tissues were used in experiments. […] Contractility videos: Tissue contractility was measured by tracking the change in tissue area as a function of time. […] Absolute differences in cell area from the baseline frame were then calculated to create a time course of cell area dynamics as a function of time. The resulting time courses were analysed using a native MATLAB (MATHWorks) automated peak finding algorithm to determine locations of maximum cell contraction indicated by the locations of local maxima in the time courses. Beat period lengths were determined from the length of time between the pairs of local maxima. Beat frequencies were determined by inverting beat periods; relaxation times were measured from the length of time required for the tissue to relax from the peak contraction amplitude of the local maxima to the calculated relaxation amplitude.

human cardiac OOC [2] = experiment: cells; conditions: read-out: EC50 of increase in beat frequency
Source text: as §2

COc1cccc2c1C(=O)c1c(O)c3c(c(O)c1C2=O)C[C@@](O)(C(=O)CO)C[C@@H]3O[C@H]1C[C@H](N)[C@H](O)[C@H](C)O1 [doxorubicin, doxorubicin hydrochloride]
albumin production (Liver tissues): decreased albumin | urea production (Liver tissues): unaffected urea production | TRAP activity (bone remodeling) (Bone tissues): stable TRAP responses | cell viability (all tissue types): significant decreases | glucose consumption (all tissue types): significant decreases | mitochondrial activity (all tissue types): significant decreases | electrical resistance (TEER) of skin (skin tissues): electrical resistance decreased | contractile and conductive behavior (cardiac compartment): decreased contractile and conductive behavior | release of troponin (cardiac compartment): increased release of troponin

CCCCc1oc2ccccc2c1C(=O)c1cc(I)c(OCCN(CC)CC)c(I)c1 [amiodarone, amiodarone hydrochloride]
beating frequency (human cardiac OOC [1]; amiodarone 2.42 μM (FIG. 50 legend prints 2.42 M), over 48 hours): beating frequency decreased

Cn1c(=O)c2c(ncn2C)n(C)c1=O [caffeine]
beat frequency (human cardiac OOC [1]; caffeine 50 mM): increase in beat frequency

CC(C)NCC(O)c1ccc(O)c(O)c1 (stereo not drawn) [isoproterenol, isoproterenol hydrochloride]
EC50 (human cardiac OOC [2]): 30 nM
